Consider two molecules from paper PMC5814754, “Quantitative, Wide-Spectrum Kinase Profiling in Live Cells for Assessing the Effect of Cellular ATP on Target Engagement” (Cell Chemical Biology, 2018).

Holding throughout (assay): Apparent affinity (EC50) of energy transfer probes by titration onto live HEK293 cells expressing kinase/Nluc fusions (Table S1)
Common to all, as to format: binding

For assay [1], the target named is full-length kinase/Nluc fusion proteins (Homo sapiens, UniProt Q9NWZ3). The following applies: IRAK4, Nluc C; read-out: Probe EC50.
In assay [2] the target is full-length kinase/Nluc fusion proteins (Homo sapiens, UniProt P78368). The note with it: CSNK1G2, Nluc N; read-out: Probe EC50.
Assay [3] deals with full-length kinase/Nluc fusion proteins (Homo sapiens, UniProt Q06418). The note with it: TYRO3 (NP_006284), Nluc orientation C; read-out: Probe EC50.
Assay [4] concerns the target full-length kinase/Nluc fusion proteins (Homo sapiens, UniProt P21802). The note with it: FGFR2, Nluc C; read-out: Probe EC50.
Assay [5] has as its target full-length kinase/Nluc fusion proteins (Homo sapiens, UniProt P80192). The note with it: MAP3K9, Nluc N; read-out: Probe EC50.
The target of assay [6] is full-length kinase/Nluc fusion proteins (Homo sapiens, UniProt P51812). The following applies: RPS6KA3 (NP_004577), Nluc orientation N; read-out: Probe EC50.
Assay [7] concerns the target full-length kinase/Nluc fusion proteins (Homo sapiens, UniProt P45984). The note with it: MAPK9, Nluc N; read-out: Probe EC50.
The target in assay [8] is full-length kinase/Nluc fusion proteins (Homo sapiens, UniProt Q16620). The note with it: NTRK2, Nluc C; read-out: Probe EC50.
The target of assay [9] is full-length kinase/Nluc fusion proteins (Homo sapiens, UniProt P31751). The note with it: AKT2, Nluc C; read-out: Probe EC50.
Assay [10] has as its target full-length kinase/Nluc fusion proteins (Homo sapiens, UniProt Q9NRM7). The following applies: LATS2, Nluc C; read-out: Probe EC50.
The target in assay [11] is full-length kinase/Nluc fusion proteins (Homo sapiens, UniProt Q9HAZ1). The following applies: CLK4, Nluc C; read-out: Probe EC50.
Assay [12] addresses full-length kinase/Nluc fusion proteins (Homo sapiens, UniProt P04629). The following applies: NTRK1, Nluc C; read-out: Probe EC50.
The target in assay [13] is full-length kinase/Nluc fusion proteins (Homo sapiens, UniProt Q15349). The following applies: RPS6KA2 (NP_001305865), Nluc orientation N; read-out: Probe EC50.
Assay [14] addresses full-length kinase/Nluc fusion proteins (Homo sapiens, UniProt O60285). The following applies: NUAK1, Nluc N; read-out: Probe EC50.
Assay [15] deals with full-length kinase/Nluc fusion proteins (Homo sapiens, UniProt P31152). The following applies: MAPK4, Nluc N; read-out: Probe EC50.
Assay [16] addresses full-length kinase/Nluc fusion proteins (Homo sapiens, UniProt Q8TD19). The note with it: NEK9, Nluc N; read-out: Probe EC50.
The target in assay [17] is full-length kinase/Nluc fusion proteins (Homo sapiens, UniProt Q9Y616). The following applies: IRAK3, Nluc N; read-out: Probe EC50.
The target of assay [18] is full-length kinase/Nluc fusion proteins (Homo sapiens, UniProt P06213). The note with it: INSR, Nluc C; read-out: Probe EC50.
The target in assay [19] is full-length kinase/Nluc fusion proteins (Homo sapiens, UniProt P17612). The following applies: PRKACA, Nluc C; read-out: Probe EC50.
The target of assay [20] is full-length kinase/Nluc fusion proteins (Homo sapiens, UniProt P19784). The following applies: CSNK2A2, Nluc C; read-out: Probe EC50.
For assay [21], the target named is full-length kinase/Nluc fusion proteins (Homo sapiens, UniProt Q9Y4K4). The note with it: MAP4K5, Nluc C; read-out: Probe EC50.
Assay [22] concerns the target full-length kinase/Nluc fusion proteins (Homo sapiens, UniProt P33981). The note with it: TTK (NP_003309), Nluc orientation C; read-out: Probe EC50.
For assay [23], the target named is full-length kinase/Nluc fusion proteins (Homo sapiens, UniProt P36888). The note with it: FLT3, Nluc C; read-out: Probe EC50.
Assay [24] deals with full-length kinase/Nluc fusion proteins (Homo sapiens, UniProt P54646). The note with it: PRKAA2, Nluc N; read-out: Probe EC50.
Assay [25] addresses full-length kinase/Nluc fusion proteins (Homo sapiens, UniProt P42684). The following applies: ABL2, Nluc N; read-out: Probe EC50.
For assay [26], the target named is full-length kinase/Nluc fusion proteins (Homo sapiens, UniProt P54764). The note with it: EPHA4, Nluc C; read-out: Probe EC50.
Assay [27] concerns the target full-length kinase/Nluc fusion proteins (Homo sapiens, UniProt P57059). The following applies: SIK1 (NP_001307572), Nluc orientation N; read-out: Probe EC50.
The target of assay [28] is full-length kinase/Nluc fusion proteins (Homo sapiens, UniProt P54753). The following applies: EPHB3, Nluc C; read-out: Probe EC50.
The target in assay [29] is full-length kinase/Nluc fusion proteins (Homo sapiens, UniProt Q16832). The note with it: DDR2, Nluc C; read-out: Probe EC50.
Assay [30] deals with full-length kinase/Nluc fusion proteins (Homo sapiens, UniProt P54756). The following applies: EPHA5, Nluc C; read-out: Probe EC50.
Assay [31] addresses full-length kinase/Nluc fusion proteins (Homo sapiens, UniProt P07948). The following applies: LYN, Nluc C; read-out: Probe EC50.
Assay [32] deals with full-length kinase/Nluc fusion proteins (Homo sapiens, UniProt P42680). The following applies: TEC (NP_003206), Nluc orientation N; read-out: Probe EC50.

A value given as a limit tells only on which side of the number the result lay.

Chain of full-length kinase/Nluc fusion proteins (Homo sapiens, UniProt P21802) (P21802 22-821): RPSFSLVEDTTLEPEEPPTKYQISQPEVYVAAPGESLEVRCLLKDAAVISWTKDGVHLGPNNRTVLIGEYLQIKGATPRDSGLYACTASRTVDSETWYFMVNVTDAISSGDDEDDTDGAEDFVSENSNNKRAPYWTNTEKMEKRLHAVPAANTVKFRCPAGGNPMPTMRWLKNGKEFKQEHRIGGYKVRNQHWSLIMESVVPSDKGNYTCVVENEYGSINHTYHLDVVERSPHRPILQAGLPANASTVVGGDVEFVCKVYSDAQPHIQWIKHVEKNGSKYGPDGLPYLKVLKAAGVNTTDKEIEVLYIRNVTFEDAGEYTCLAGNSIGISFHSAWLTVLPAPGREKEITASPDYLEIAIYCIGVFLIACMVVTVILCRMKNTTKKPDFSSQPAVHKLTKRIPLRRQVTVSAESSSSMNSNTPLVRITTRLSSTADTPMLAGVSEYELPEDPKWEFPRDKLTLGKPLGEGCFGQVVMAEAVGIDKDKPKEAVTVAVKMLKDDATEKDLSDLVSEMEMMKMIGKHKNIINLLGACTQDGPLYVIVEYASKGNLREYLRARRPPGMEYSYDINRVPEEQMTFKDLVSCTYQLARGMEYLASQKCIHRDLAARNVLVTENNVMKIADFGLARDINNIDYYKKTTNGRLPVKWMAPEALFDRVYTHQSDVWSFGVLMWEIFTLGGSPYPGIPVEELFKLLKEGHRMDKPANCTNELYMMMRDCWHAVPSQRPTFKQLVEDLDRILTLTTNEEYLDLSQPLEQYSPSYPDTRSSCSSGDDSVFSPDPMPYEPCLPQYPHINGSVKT
Chain of full-length kinase/Nluc fusion proteins (Homo sapiens, UniProt P54764) (P54764 20-986): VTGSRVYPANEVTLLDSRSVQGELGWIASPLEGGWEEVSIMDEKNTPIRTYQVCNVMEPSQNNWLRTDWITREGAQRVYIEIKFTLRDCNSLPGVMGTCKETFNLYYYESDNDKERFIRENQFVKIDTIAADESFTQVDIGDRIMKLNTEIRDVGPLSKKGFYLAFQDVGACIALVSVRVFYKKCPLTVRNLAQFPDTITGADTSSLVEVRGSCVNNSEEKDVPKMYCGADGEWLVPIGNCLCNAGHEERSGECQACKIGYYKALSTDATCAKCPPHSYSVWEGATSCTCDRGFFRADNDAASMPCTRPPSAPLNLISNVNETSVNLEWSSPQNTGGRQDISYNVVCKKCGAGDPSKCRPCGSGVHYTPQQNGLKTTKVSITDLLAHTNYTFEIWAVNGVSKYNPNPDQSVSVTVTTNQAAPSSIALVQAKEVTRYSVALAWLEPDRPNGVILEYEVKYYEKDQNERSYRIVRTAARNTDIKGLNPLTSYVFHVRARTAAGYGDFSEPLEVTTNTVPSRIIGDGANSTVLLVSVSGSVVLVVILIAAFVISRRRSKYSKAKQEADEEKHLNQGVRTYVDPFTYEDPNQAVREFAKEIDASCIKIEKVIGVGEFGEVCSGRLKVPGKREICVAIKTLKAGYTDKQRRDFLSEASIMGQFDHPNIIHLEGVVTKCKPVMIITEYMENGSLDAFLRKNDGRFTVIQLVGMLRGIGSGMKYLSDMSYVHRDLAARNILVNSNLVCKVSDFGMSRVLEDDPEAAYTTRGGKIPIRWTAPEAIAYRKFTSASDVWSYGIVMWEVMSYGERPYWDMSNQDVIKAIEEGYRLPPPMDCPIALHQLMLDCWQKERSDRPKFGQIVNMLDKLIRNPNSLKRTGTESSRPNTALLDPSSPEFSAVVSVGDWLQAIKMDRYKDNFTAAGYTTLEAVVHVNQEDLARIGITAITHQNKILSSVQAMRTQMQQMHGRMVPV
Chain of full-length kinase/Nluc fusion proteins (Homo sapiens, UniProt P54646) (P54646 whole entry, the tested form may be a part): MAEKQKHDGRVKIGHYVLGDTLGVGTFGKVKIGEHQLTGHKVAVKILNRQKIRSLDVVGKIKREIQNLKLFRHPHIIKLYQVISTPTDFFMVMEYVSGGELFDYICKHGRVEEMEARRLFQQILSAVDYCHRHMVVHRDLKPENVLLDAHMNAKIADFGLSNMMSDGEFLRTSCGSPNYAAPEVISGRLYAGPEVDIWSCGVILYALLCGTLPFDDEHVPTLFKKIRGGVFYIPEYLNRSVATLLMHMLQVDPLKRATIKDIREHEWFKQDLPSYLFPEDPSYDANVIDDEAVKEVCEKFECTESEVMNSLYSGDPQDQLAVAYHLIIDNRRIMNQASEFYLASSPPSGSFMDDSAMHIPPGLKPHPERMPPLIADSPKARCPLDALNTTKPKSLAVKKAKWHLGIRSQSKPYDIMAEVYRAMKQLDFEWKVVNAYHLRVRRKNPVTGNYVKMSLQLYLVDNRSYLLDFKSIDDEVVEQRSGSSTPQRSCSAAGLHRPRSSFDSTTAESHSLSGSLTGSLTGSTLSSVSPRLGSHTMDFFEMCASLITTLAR
Chain of full-length kinase/Nluc fusion proteins (Homo sapiens, UniProt P19784) (P19784 whole entry, the tested form may be a part): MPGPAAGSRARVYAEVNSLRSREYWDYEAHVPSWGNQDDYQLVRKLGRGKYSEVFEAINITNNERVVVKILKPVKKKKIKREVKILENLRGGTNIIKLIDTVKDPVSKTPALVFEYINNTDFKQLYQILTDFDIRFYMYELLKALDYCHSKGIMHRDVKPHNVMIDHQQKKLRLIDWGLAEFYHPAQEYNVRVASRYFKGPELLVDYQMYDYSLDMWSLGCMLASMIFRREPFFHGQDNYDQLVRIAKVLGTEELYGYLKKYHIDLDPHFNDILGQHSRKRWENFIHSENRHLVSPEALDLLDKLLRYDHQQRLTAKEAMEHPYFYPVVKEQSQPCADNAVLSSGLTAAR
Chain of full-length kinase/Nluc fusion proteins (Homo sapiens, UniProt P51812) (P51812 whole entry, the tested form may be a part): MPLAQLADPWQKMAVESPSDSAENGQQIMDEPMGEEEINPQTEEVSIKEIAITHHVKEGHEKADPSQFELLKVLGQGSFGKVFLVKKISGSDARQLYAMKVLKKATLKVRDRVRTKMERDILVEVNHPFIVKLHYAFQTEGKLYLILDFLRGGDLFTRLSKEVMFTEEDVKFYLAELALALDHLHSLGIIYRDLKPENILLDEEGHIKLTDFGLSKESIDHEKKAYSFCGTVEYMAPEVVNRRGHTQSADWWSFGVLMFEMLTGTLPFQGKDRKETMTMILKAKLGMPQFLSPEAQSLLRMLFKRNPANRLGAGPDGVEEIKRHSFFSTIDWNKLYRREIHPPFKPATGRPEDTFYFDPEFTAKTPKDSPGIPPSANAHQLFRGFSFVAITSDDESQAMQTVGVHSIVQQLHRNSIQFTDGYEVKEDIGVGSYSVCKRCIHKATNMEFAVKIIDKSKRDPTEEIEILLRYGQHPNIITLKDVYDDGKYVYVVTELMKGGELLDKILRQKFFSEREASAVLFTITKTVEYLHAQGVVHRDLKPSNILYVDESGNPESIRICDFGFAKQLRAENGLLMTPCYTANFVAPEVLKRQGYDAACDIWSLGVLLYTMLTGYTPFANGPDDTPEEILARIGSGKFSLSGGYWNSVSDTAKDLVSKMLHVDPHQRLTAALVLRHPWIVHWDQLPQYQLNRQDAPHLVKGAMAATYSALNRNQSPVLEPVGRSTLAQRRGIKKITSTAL
Chain of full-length kinase/Nluc fusion proteins (Homo sapiens, UniProt Q06418) (Q06418 41-890): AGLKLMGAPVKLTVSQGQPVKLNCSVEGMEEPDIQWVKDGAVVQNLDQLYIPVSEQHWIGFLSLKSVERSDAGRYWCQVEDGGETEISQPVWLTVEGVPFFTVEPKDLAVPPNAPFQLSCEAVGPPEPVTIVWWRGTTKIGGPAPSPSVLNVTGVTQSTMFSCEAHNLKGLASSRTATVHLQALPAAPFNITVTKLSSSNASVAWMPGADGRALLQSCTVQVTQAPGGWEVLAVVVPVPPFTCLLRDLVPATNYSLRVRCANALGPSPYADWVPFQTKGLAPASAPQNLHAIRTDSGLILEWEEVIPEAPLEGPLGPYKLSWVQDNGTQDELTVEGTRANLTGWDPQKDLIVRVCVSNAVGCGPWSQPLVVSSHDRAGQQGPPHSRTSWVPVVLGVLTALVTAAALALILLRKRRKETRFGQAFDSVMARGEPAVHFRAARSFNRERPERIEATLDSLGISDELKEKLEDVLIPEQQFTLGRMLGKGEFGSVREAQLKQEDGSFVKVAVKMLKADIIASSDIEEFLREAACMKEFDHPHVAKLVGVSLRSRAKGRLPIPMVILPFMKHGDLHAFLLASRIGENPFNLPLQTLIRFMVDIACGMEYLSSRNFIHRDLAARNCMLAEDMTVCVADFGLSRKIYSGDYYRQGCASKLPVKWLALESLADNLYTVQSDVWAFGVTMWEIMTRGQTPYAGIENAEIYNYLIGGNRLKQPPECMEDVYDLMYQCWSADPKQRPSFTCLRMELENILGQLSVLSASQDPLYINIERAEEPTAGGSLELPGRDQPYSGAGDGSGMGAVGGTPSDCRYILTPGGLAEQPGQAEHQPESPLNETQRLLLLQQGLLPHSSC
Chain of full-length kinase/Nluc fusion proteins (Homo sapiens, UniProt P07948) (P07948 whole entry, the tested form may be a part): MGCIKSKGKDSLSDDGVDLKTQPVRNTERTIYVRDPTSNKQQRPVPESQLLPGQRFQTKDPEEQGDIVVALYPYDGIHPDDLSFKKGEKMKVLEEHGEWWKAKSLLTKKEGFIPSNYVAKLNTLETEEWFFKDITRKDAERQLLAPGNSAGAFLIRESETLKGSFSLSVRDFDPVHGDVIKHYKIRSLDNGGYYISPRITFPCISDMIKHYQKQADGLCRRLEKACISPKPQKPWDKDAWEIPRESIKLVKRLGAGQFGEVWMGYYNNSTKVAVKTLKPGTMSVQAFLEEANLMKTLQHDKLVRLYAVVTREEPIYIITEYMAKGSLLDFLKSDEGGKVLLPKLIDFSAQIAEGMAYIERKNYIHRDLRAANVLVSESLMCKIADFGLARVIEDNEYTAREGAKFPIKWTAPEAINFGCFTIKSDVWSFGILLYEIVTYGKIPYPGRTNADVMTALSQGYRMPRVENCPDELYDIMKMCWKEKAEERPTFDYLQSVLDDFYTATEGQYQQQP

Consider `CNC(=O)c1ccccc1Nc1nc(Nc2ccc(N3CCN(C(=O)CCOCCOCCOCCOCCNC(=O)CCc4ccc5n4[B-](F)(F)[N+]4=C(c6ccc[nH]6)C=CC4=C5)CC3)cc2)ncc1Cl` [Energy Transfer Probe 5, 2-((2-((4-(4-(1-amino-3,6,9,12-tetraoxapentadecan-15-oyl)piperazin-1-yl)phenyl)amino)-5-chloropyrimidin-4-yl)amino)-N-methylbenzamide-NanoBRET 590], for which the EC50 (commonly the concentration giving half of the maximal effect) in assay [1] was over 1000 nM; in assay [2], over 1000 nM; in [3] it was over 1000 nM; in assay [4], 600 nM; in assay [5] it was over 1000 nM; in assay [6], 200 nM. Moreover, the EC50 was 500 nM in assay [7]; 500 nM in [8]; over 1000 nM in [9]; 300 nM in [10]; 300 nM in assay [11]; 400 nM in assay [12]. The EC50 in assay [13] was 600 nM; in assay [14], 100 nM; in assay [15] it was over 1000 nM; in assay [16], over 1000 nM; in assay [17] it was 60 nM; in [18] it was over 1000 nM. Besides, the EC50 is over 1000 nM in [19]; over 1000 nM in assay [20]; over 1000 nM in assay [21]; 300 nM in assay [22]; over 1000 nM in assay [23]; over 1000 nM in assay [24].

As for `Cc1nc(Nc2ncc(C(=O)Nc3c(C)cccc3Cl)s2)cc(N2CCN(CCOCCNC(=O)CCc3ccc4n3[B-](F)(F)[N+]3=C(c5ccc[nH]5)C=CC3=C4)CC2)n1` [Energy Transfer Probe 6, 2-((6-(4-(2-(2-aminoethoxy)ethyl)piperazin-1-yl)-2-methylpyrimidin-4-yl)amino)-N-(2-chloro-6-methylphenyl)thiazole-5-carboxamide-NanoBRET 590], the EC50 in assay [25] came out at 10 nM; in assay [26], 40 nM; in [27] it was 100 nM; in assay [28] it was 200 nM; in [29] it was 100 nM; in assay [30], 30 nM. In addition, the EC50 in assay [31] and in [32] was over 1000 nM in each case.
